What was measured:
[1] = system: HT-29 orthotopic xenograft colorectal tumors; test: EVOC of orthotopic colon tumors, pERK and H&E/BrDu; type: cell-based, human; conditions: AZD4547 0.5 μM, 96 hours of incubation
From the text: 500-700 μmm^3 tumors were resected, sliced, and cultured ex-vivo. Following 4 days of drug treatment, slices were fixed and embedded in paraffin blocks. FFPE slices were stained by H&E, and the percentage of viable cancer cells was morphologically assessed on H&E stained sections by a pathologist as the ratio between viable cancer cell area and total cancer area (viable cancer cells plus necrotic cancer cells). […] Each black dot in a given treatment condition represents a different tumor. P-values were calculated by two-sided t-test. *** P<0.001 ** P<0.01. Error bars represent standard error. […] Names of the six secreted factors with the highest rScore are shown. Factors related to TNF pathways are marked in gray. Results represent the average of at least two experiments. […] Cohort size pre-treatment: 5-6, P-values of the difference on the last day of experiment were calculated by one-sided Mann-Whitney test. * P<0.05. […] Viability percentage was calculated based on the entire field of view per treatment combination. […] FFPE slices were stained by pERK and pERK activity was assessed by a pathologist. […]
For the ex-vivo experiments EVOCs from immunocompromised mice bearing human tumors were generated, as further described hereinbelow. For the in-vivo validation experiments, mice bearing subcutaneous tumors were used; and response was measured by evaluating tumor volume. […]

human NSCLC tumor biopsy = test: EVOC of NSCLC patient biopsies, viability; type: cell-based
From the text: Error bars represent standard error. […] Scale bar represents 50 μm. […] Error bars represent standard error. […] Scale bar represents 50 μm.
Scale bar represents 50 μm. […] Scale bar represents 50 μm. […] Scale bar represents 50 μm.

[2] = system: colorectal BRAF (V600E) patient tumor; test: EVOC of a colorectal BRAF (V600E) patient biopsy, viability; type: cell-based, human; conditions: Dabrafenib 4 μM/trametinib 0.5 μM with or without trastuzumab or AZD4547 2 μM
Procedure: Freshly resected biopsy was sliced, and cultured ex vivo. Following 4 days of drug treatment, slices were fixed and embedded in paraffin blocks. FFPE slices were stained by H&E, and the percentage of viable cancer cells was morphologically assessed on H&E stained sections by a pathologist as the ratio between viable cancer cell area and total cancer area (viable cancer cells plus necrotic cancer cells). […] Vehicle—DMSO, FGFRi—AZD4547 2 μM, HER2i—trastuzumab 30 g/ml, BRAFi/MEKi—Dabrafenib 4 μM/trametinib 0.5 μM.
Tumor tissue was obtained from patients at the time of operation or at the time of tissue core biopsy. Following resection, the fresh tissue was placed in ice-cold PBS for immediate transfer to the lab for ex vivo organ culturing. […]
Immunohistochemistry of EVOC tissues: To assess response therapy, 4 μm FFPE tissue slices were stained with H&E, or with specific antibodies: anti-pERK (Cell Signaling, #4370) followed by HRP conjugated secondary antibody (anti-Rabbit HRP, ZUC032, ZytoChem) and DAB staining (DAB substrate kit, DAB057, ZytoChem). […] All slides were scanned using the Pannoramic SCAN II (3[sequence]) and analyzed by a pathologist. The percentage of viable cancer cells was morphologically assessed on H&E stained sections by a pathologist as the ratio between viable cancer cell area and total cancer area (viable cancer cells plus necrotic cancer cells).

[3] = system: SK-MEL-5 BRAF (V600E) melanoma cells; test: Co-culture of stroma (WI-38 or HS-5) and cancer cells; type: cell-based, human; conditions: co-culture with HS-5; inhibitor added to vemurafenib
Procedure: SK-MEL-5 BRAF (V600E) melanoma cells were co-cultured with the lung-derived stromal cell line WI-38 or with the bone marrow-derived stromal cell line HS-5 with or without vemurafenib (4 μM). […] Vehicle—DMSO, EGFRi—gefitinib (0.1 μM), EGFRi/HER2i—lapatinib (10 nM), METi—crizotinib (0.1 μM), FGFRi—AZD4547 (50 nM), NFkB/TNFRi—CAPE (10 μM), TGFBRi-LY2109761 (0.5 μM), gp130i—SC144 (1 nM). […] Error bars represent standard error. […] Error bars represent standard error. […] Human BRAF (V600E) melanoma cell lines UACC62 or G361 were used to generate xenograft tumor models in various tissues of nude mice. When tumors reached a volume of 500-700 μmm^3, they were resected, sliced, and cultured ex-vivo in the presence of different drug combinations or DMSO control. Following 4 days of drug treatment, slices were fixed, embedded in paraffin blocks, and subjected to immunohistochemistry, using anti-pERK antibody, or to immuno-fluorescence, using anti-pFGFR1 antibody. BRAFi (vemurafenib, 4 μM), FGFRi (AZD4547, 2 μM). Scale bar represents 50 μm.
Four hours later, the melanoma BRAF (V600E) mutated cell line SK-MEL-5 was seeded on top of the stromal cells at a concentration of 1700 cells per well, or seeded without stroma. […] Concentrations of the inhibitors were based on dose curves with SK-MEL-5. For each inhibitor of potential mechanism of resistance, the maximal concentration with minimal effect (toxicity) on cell growth was selected (Cmax).
To compare rScore value of stroma-mediated resistance with or without a given inhibitor, the rScore values of each inhibitor in the presence of stroma, was calculated. As a reduction in rScore may stem from mere toxicity of the inhibitor, rather than the abrogation of the stroma mediated resistance, each inhibitor rScore was penalized by its toxicity.
rScoreinhibitor=rScoreinhibitor+(rScorestroma−rScoreinhibitor)*tOxicitY(Cmax)inhibitor

Q: For AZD4547, which “H&E and BrDu staining of tissue” value [1] is on record?
A: live and proliferating tissue

Q: What about the “response, cancer cell viability” value (human NSCLC tumor biopsy; patient refractory to osimertinib, osimertinib 4 μM with AZD4547 2 μM) of the same substance?
A: improved response as compared to osimertinib alone

Q: And the cancer cells viability (human NSCLC tumor biopsy; treatment-naïve patient, AZD4547 0.2 μM added to gefitinib 1.6 μM)?
A: significantly reduced cancer cells viability

Q: And the cancer cell viability (human NSCLC tumor biopsy; treatment-naïve patient, in combination with osimertinib 4 μM)?
A: did not affect cancer cell viability

Q: And the cancer cell viability [2]?
A: did not improve the response to treatment

Q: What about the “abrogation of stroma-mediated resistance to vemurafenib” value [3] of the same substance?
A: needed to abrogate the resistance effect of HS-5

Reference: US20240133870A1, “COMBINED TREATMENT FOR CANCER” (Yeda Research and Development Co. Ltd., priority 2021, published 2024)
